From US8580780B2, “6 substituted 2, 3,4,5 tetrahydro-1H-benzo[d]azepines as 5-HT2C receptor agonist” (Eli Lilly and Company, priority 2004, dated 2013)

Legend:
[1] = rat, in vivo; cited from earlier work
[2] = Marble burying assay; format: in vivo, male NIH Swiss mice; conditions: mice, 30 min session, with rotorod check
From the text: Marble burying in mice has been used to model anxiety disorders including obsessive-compulsive disorders (OCD) due to ethological study of the behavior (e.g. Gyertyan I. “Analysis of the marble burying response: Marbles serve to measure digging rather than evoke burying”, Behavioural Pharmacology 6: 24-31, (1995)) and due to the pharmacological effects of clinical standards (c.f., Njung'E K. Handley S L. “Evaluation of marble-burying behavior as a model of anxiety”, Pharmacology, Biochemistry & Behavior. 38: 63-67, (1991)); Borsini F., Podhorna J., and Marazziti, D. “Do animal models of anxiety predict anxiolytic effects of antidepressants?”, Psychopharmacology 163: 121-141, (2002)).
House experimentally-naïve male, NIH Swiss mice (Harlan Sprague-Dawley, Indianapolis, Ind.) weighing between 28-35g in groups of 12 for at least three days prior to testing in a vivarium with 12 h light and dark cycles. Conduct experiments during the light cycle in a dimly lit experimental testing room. Dose mice with vehicle or test compound and, after a specified pretreatment interval (generally 30 min.), place each mouse individually on a rotorod (Ugo Basile 7650) operating at a speed of 6 revolutions/min. and observe for falling. […]
Clinically effective standard compounds suppress marble burying at doses that are devoid of motor-impairing effects as measured on the rotorod. […]

[3] = Nestlet shredding; format: in vivo, male NIH Swiss mice; conditions: mice, 30 min
From the text: Mice naturally will construct nests of material available in their living environment. Since this behavior is obsessive in nature, it has been used to model OCD (Xia Li, Denise Morrow and Jeffrey M. Witkin, “Decreases in nestlet shredding of mice by serotonin uptake inhibitors: comparison with marble burying”, Psychopharmacology, submitted Jul. 14, 2003). House experimentally-naïve male, NIH Swiss mice (Harlan Sprague-Dawley, Indianapolis, Ind.) weighing between 28-35g in groups of 12 for at least three days prior to testing in a vivarium with a 12 h light/dark cycle. Conduct experiments during the light cycle in an experimental room with normal overhead fluorescent lighting. Dose mice with vehicle or test compound and after a specified pretreatment interval (generally 30 min.), place the mice individually in a 17×28×12 cm high plastic tub with about 5 mm sawdust shavings on the floor along with a pre-weighed multi-ply gauze pad (51 mm square). After 30 min., weigh the remainder of the game pad not removed by the mouse. Determine the weight of the gauze used for nestlet construction by subtraction. Compare the results for test compound treated mice to the results for vehicle control treated mice with Dunnett's test.
Clinically effective OCD treatment standard compounds suppress nestlet shredding at doses that are devoid of motor-impairing effects as measured by the rotorod test. […]

[4] = Schedule-induced polydipsia; format: in vivo, Wistar rats
From the text: Food-deprived rats exposed to intermittent presentations of food will drink amounts of water that are far in excess of their normal daily intake and in excess of their intake when given all of their food at one time (Falk J L. “Production of polydipsia in normal rats by an intermittent food schedule”, Science 133: 195-196, (1961)). This excessive behavior is persistent and has been used to model OCD.
Maintain Wistar rats on a food restricted diet (to maintain 85% free feeding weight), but with free access to water. Train the rats in a behavioral testing chamber to press a lever to receive a food pellet under a fixed interval schedule, such that the rats are rewarded with a 45 mg food pellet the first time they press a lever after a 120 second interval has elapsed. The fixed interval is then reset to 120 seconds and the process repeated. Thus, during a 90 min. test session, the rats can earn a maximum of 45 pellets. The behavioral chamber is also equipped with a water bottle that is weighed before and after the session to determine the amount of water consumed.
Administer test compounds on Tuesdays and Fridays. […] Compare the rates of lever pressing and water consumption for each animal's performance during sessions after test compound treatment with that animal's performance during control sessions, expressed as a percent of the control rate. […]

[5] = mouse, in vivo; cited from earlier work

## Clc1ccc2c(c1SCc1ccccn1)CCNCC2.O=C(O)CCC(=O)O
other
  melting point: 159 to 160 °C

## CN(C)CCCN1c2ccccc2CCc2ccc(Cl)cc21 [chlomipramine]
[1]
  schedule-induced polydipsia (clinically effective OCD standards): suppress schedule-induced polydipsia without producing notable changes in motor patterns, food intake, or behavior the following day

## CN(C)CCCN1c2ccccc2Sc2ccc(Cl)cc21 [chlorpromazine]
[2]
  marble burying behavior: decrease marble burying only at doses that also disrupt rotorod performance

## C[C@H](N)Cc1ccccc1 [d-amphetamine]
[3]
  nestlet shredding: decreases nestlet shredding only at doses that produce motoric side effects
[4]; rat, in vivo
  Effect on polydipsia with co-administration of 5-HT2C antagonist: not prevented by the 5HT2C receptor antagonist
[4]; rats, 90 min session
  schedule-induced polydipsia (excessive drinking): decreases excessive drinking only at behaviorally stimulating doses

## CNCCC(Oc1ccc(C(F)(F)F)cc1)c1ccccc1 (centres unmarked) [fluoxetine]
[5]
  marble burying (clinical standards, literature): decrease burying
[1]
  schedule-induced polydipsia (clinically effective OCD standards): suppress schedule-induced polydipsia without producing notable changes in motor patterns, food intake, or behavior the following day
